In paper PMC6273912, “Novel 5-Substituted 2-(Aylmethylthio)-4-chloro-N-(5-aryl-1,2,4-triazin-3-yl)benzenesulfonamides: Synthesis, Molecular Structure, Anticancer Activity, Apoptosis-Inducing Activity and Metabolic Stability” (Molecules, 2016):

Key:
[1] = Metabolic stability with human liver microsomes and NADPH; format: in vitro ADME; details: liver microsomes, pH 7.4, human liver microsomes 0.5 mg/mL, 1 mM NADPH, 10 μM compound, pH 7.4, 37 °C, up to 60 min, read-out: In Vitro Metabolic Half-Life t1/2
Method: Stock solutions of studied compounds were prepared at concentration of 10 mM in DMSO. […] Incubation mixture contained 10 μM of a studied derivative, 1 mM of NADPH (Sigma-Aldrich) and 0.5 mg/mL of human liver microsomes (HLM, Sigma-Aldrich) in potassium phosphate buffer (0.1 M, pH 7.4). Incubation was carried out in thermostat at 37 °C and started by addition of studied compound. 50 μL samples were taken after 5, 15, 30, 45 and 60 min. Enzymatic reaction was terminated by the addition of the equal volume of ice-cold acetonitrile containing 10 μM of alprazolam (Sigma-Aldrich) serving as internal standard (IS). Control incubations were performed without NADPH to assess chemical instability. After collection, samples were immediately centrifuged (10 min, 10,000 rpm) and resulted supernatant was directly analyzed or kept in −80 °C until LC-MS analysis. Natural logarithm of a compound over IS peak area ratio was plotted versus incubation time. Metabolic half-time (t1/2) was calculated from the slope of the linear regression, as reported in [48].
LC-MS analysis was performed on an Agilent 1260 system coupled to SingleQuad 6120 mass spectrometer (Agilent Technologies, Santa Clara, CA, USA). Ascentis Express ES-CN (2.1 mm × 100 mm, 2.7 μm, Supelco Analytical, Bellefonte, PA, USA) was used in reversed-phase mode with gradient elution starting with 50% of phase A (10 mM ammonium formate in water) and 50% of phase B (10 mM ammonium formate in acetonitrile-water mixture, 95:5 v/v). […] Total analysis time was 10 min at 25 °C, flow rate was 0.4 mL/min and the injection volume was 20 μL. The mass spectrometer was equipped with electrospray ion source and operated in positive ionization. Mass analyzer was set individually to each compound to detect [M + H]^+ pseudomolecular ions. MSD parameters of the ESI source were as follows: nebulizer pressure 50 psig (N2), drying gas […] (N2), drying gas temperature 300 °C, capillary voltage 3.5 kV, fragmentor voltage 100 V.

[2] = tested on: HeLa; assay: Mitochondrial membrane potential (JC-1), HeLa; format: cell-based, human; details: 24 h, low and moderate concentrations
Method: Loss of the mitochondrial membrane potential (Δψm) is one of the earliest indicators of an apoptosis. It can be detected using fluorescent dye JC-1 (5,5′,6,6′-tetrachloro-1,1′,3,3′-tetraethylbenzimidazolylcarbocyanine iodide) exited with blue laser. JC-1 spontaneously forms dimer complexes (J aggregates) with red fluorescent or remain as a monomers with green fluorescence in cells with high and low Δψm, respectively.
Half an hour before the end of 24 h-treatment 2.5 μg/mL of JC-1 (5,5′,6,6′-tetrachloro-1,1′,3,3′-tetraethylbenzimidazolylcarbocyanine iodide) was added to the cell medium. As a negative control 100 μM CCCP (carbonyl cyanide 3-chlorophenylhydrazone) was used 15 min before JC-1 treatment. Following treatment cells were twice washed with PBS and analyzed with flow cytometer (LSR II, BD Biosciences).
Green and red fluorescence were observed using FL-1 (530 ± 30 nm) and FL-2 (585 ± 42 nm) channels, respectively. Percentage of cell population in red or green fluorescence gate indicated the level of Δψm. Decreasing red fluorescence cell population indicated lower Δψm.

half-life at 10 μM [1]: 32.8 min
SMILES: Cc1cc(S(=O)(=O)Nc2nncc(-c3ccc(C(F)(F)F)cc3)n2)c(SCc2cccc3ccccc23)cc1Cl [Compound 37, 4-Chloro-5-methyl-2-[(naphthalene-1-yl)methylthio]-N-[5-(4-trifluoromethylphenyl)-1,2,4-triazin-3-yl]-benzenesulfonamide]
effect on mitochondrial membrane potential (Δψm) [2]: remarkably decreased Δψm
